Article PMC9138102, “The Role of ZIP9 and Androgen Receptor in the Establishment of Tight Junctions between Adult Rat Sertoli Cells” (Biology, 2022)
Like-named read-outs stand apart in the source and are kept apart here.

Columns and labels:
[1] = tested on: Erk1/2; assay: Erk1/2 phosphorylation in PASC1 cells, Western blot; assay type: cell-based, rat
Procedure: A total of 3 × 10^4 PASC1 cells/dish were grown in 5 cm culture dishes as described above. Cells were then incubated for 24 h with 1% FCS before testosterone or P1 were added to the medium to reach the desired final concentration. The ethanol vehicle for testosterone was added to the peptide-treated cells and untreated controls at the same concentration as in cell cultures treated with testosterone. After 24 h, the medium was aspired and the cells were washed twice in ice-cold DPBS. Cells were then incubated with 400 µL lysis buffer (Cell Signaling Technologies, Frankfurt, Germany) containing 1 µM PMSF, 1× protease inhibitor cocktail (Roche, Mannheim, Germany), and 2 µg/mL pepstatin that was added immediately before use. All further steps were carried out on ice. After 5 min of incubation, cells were detached using a cell scraper. The suspensions were then transferred into 1.5 mL vials and sonicated 5 times for 1 s each with intervals of 1 s. After centrifugation of the lysates at 4 °C and 13,000× g for 10 min, the protein concentration in the supernatants was determined at 540 nm using a bicinchoninic acid protein assay reagent kit (Pierce, Southfield, MI, USA) and a Labsystems (Helsinki, Finland) plate reader. The BSA protein standard contained lysis buffer at the same concentration as in the samples from the cell lysates. Supernatants were then aliquoted and maintained at −20 °C until further use.
A total of 10 µg protein from PASC1 cell lysates was run on SDS-PAGE gels containing 10% acrylamide and 0.3% N,N′-methylene-bis-acrylamide. Biotinylated proteins (Cell Signaling Technologies) were run in parallel as molecular weight markers. After electrophoresis, proteins were semi-dry electro-blotted onto PVDF membranes (Merck Chemicals GmbH, Schwalbach, Germany) for 30 min at […]. The membranes were then incubated for 1 h at room temperature in 5% (w/w) non-fat dry milk. Primary antibodies against phospho-Erk1/2, total-Erk1/2, or beta-actin were diluted according to the recommendations of the manufacturers and then incubated with the PVDF membranes overnight at 4 °C (see Supplementary Table S1 for all antibodies with dilutions and manufacturers). After washing in DPBS, the membranes were incubated under continuous mild agitation on an orbital shaker for 60 min at room temperature with a horseradish peroxidase-conjugated secondary antibody. An anti-biotin, HRP-conjugated antibody at a dilution of 1:2000 was also included in the mixture containing the secondary antibody in order to detect the biotinylated molecular weight marker. Antibody-labeled protein bands were visualized by enhanced chemiluminescence.
Figure 5 Western blot analysis of phospho-Erk1/2. PASC1 cells were stimulated for 24 h with various concentrations of testosterone or IAPG. (A) Phospho-Erk1/2 detection after stimulation with testosterone and (B) after stimulation with IAPG. […] For each diagram: n = 3; means ± SEM. Original Western blots are shown in Supplementary Figure S1.

[2] = tested on: Erk1/2; assay: phospho-Erk1/2 immunofluorescence in PASC1 cells after AR or ZIP9 silencing; assay type: cell-based, rat; settings: 10 nM testosterone or 10 µM IAPG, 24 h
Procedure: (§1) PASC1 cells were plated at a density of 3.0 × 10^4 on 24-well plates (1 mL/well) and incubated 48 h at 37 °C and 5% CO2 until a confluence of roughly 80% was reached. Cells were rinsed with DPBS and fixed with 100% ice-cold methanol (Roth, Karlsruhe, Germany) on ice for 10 min directly or after stimulation with vehicle, 10 nM testosterone, or 1 µM P1 for 24 h. Cells were then washed with DPBS three times for 5 min, and then incubated in blocking solution (PBS with 3% BSA and 0.3% Triton X-100, both from Sigma-Aldrich) for 1 h at room temperature. The blocking solution was replaced by fresh blocking solution containing the primary antibodies for detection of either AR, p-Erk1/2, p-CREB/p-ATF-1, claudin-1 (Cldn-1), or zonula occludens-1 (ZO-1) (Supplementary Table S1) and incubated overnight at 4 °C. Cells were washed 3 times with DPBS for 3 min each at RT on an orbital shaker, freshly made blocking solution with the appropriate Alexafluor 488-conjugated donkey anti-rabbit secondary antibody was added for 1 h at room temperature on an orbital shaker. After washing 3 times with DPBS, images were obtained using an inverse Olympus IX81 microscope equipped with a fluorescence system. […] The data obtained were analyzed by GraphPad Prism5 (GraphPad Software, Inc., La Jolla, CA, USA).
(§2) For silencing ZIP9 or AR expression, PASC1 cells were treated with commercially available siRNA directed against the expression of ZIP9 or the AR by following the manufacturer’s protocol (Silencer ® Select, siRNA Invitrogen, Darmstadt, Germany). The following oligonucleotides were used: 5′ […]tt3′ and 5′ […]ta 3′ (ZIP9-siRNA for ZIP9 silencing) and 5′[…]tt3′ plus 5′ […]ag 3′ (AR-siRNA for AR silencing). Negative control siRNA (nc-siRNA) was provided in the siRNA kit from the same manufacturer. After incubation of PASC1 for 48 h with ZIP9-siRNA, AR-siRNA, or nc-siRNA, preparation of samples for qRT-PCR, TER measurement, or immunofluorescence experiments were carried out as described above.

[3] = tested on: CREB/ATF-1; assay: p-CREB/p-ATF-1 immunofluorescence in PASC1 cells after AR or ZIP9 silencing; assay type: cell-based, rat; settings: 10 nM testosterone or 10 µM IAPG, 24 h, n = 3 × 25
[4] = tested on: Cldn-1; assay: Cldn-1 expression in PASC1 cells, immunofluorescence; assay type: cell-based, rat; settings: 10 nM testosterone or 10 µM IAPG, 24 h, n = 3 × 25
Procedure: as §1, §2

[5] = tested on: PASC1 cells; assay: Transepithelial electrical resistance (TER) across PASC1 cell layers; assay type: cell-based, rat; settings: 10 nM testosterone or 10 µM IAPG, 0, 24, 48, 72 h, n = 6, means ± SEM
Procedure: TER measurements were performed as described. Briefly, 6.0 × 10^4 cells/cm^2 of androgen receptor (AR)- or ZIP9-knockdown PASC1 or non-treated PASC1 cells were seeded on 0.4 μm inserts of 24-well plates (Greiner bio one, Frickenhausen, Germany) and cultured for 48 h until they reached confluence. […] As testosterone was dissolved in ethanol (vehicle), the same volume of ethanol was added to the peptide-treated cells and untreated controls. TER measurements were made with a Millicell ERS-2 epithelial Volt-Ohm meter (Merck Millipore, Darmstadt, Germany). ΩXcm^2 was calculated according to the protocol of the manufacturer by setting the resistance of cell-free inserts to zero.
as §2

[6] = tested on: Erk1/2; design: method as in PMID 35053053; settings: Sertoli cell line 93RS2, cited from earlier work
Description: Activation of Erk1/2 by phosphorylation occurs in the so-called non-classical signaling pathway of testosterone.

[7] = tested on: androgen binding site ZIP9 of the Sertoli cell line 93RS2; design: method as in PMID 35053053, PMID 35053017; settings: 93RS2 / L6 (cell line not separately stated); cited from earlier work

C[C@]12CC[C@H]3[C@@H](CCC4=CC(=O)CC[C@@]43C)[C@@H]1CC[C@@H]2O [testosterone]
Total expression of Erk1/2 or beta-actin [1]: did not affect total expression of Erk1/2 or beta-actin
EC50 ([1]; Rattus norvegicus, 24 h per legend, within 30 min per text, 10^-10 to 10^-7 M, n = 3, means ± SEM): 0.35 nM
Concentration needed for maximum stimulation of Erk1/2 phosphorylation ([1]; testosterone): 0.01 µM
Stimulatory effect on Erk1/2 phosphorylation, nc-siRNA versus AR-siRNA [2]: not significantly different from each other
Erk1/2 phosphorylation (green fluorescence) ([2]; AR-siRNA, ** p ≤ 0.01): responded with augmented phosphorylation of Erk1/2
Erk1/2 phosphorylation (green fluorescence) ([2]; ZIP9-siRNA, ns): entirely prevented stimulation of Erk1/2 phosphorylation
Erk1/2 phosphorylation (green fluorescence) ([2]; nc-siRNA, ** p ≤ 0.01): low (Figure 6A) relative to the signal obtained in cells exposed to testosterone
CREB/ATF-1 phosphorylation ([3]; AR-siRNA): to the same extent as cells treated with nc-siRNA
CREB/ATF-1 phosphorylation ([3]; ZIP9-siRNA): failed to stimulate phosphorylation of CREB/ATF-1
CREB/ATF-1 phosphorylation ([3]; nc-siRNA): stimulated CREB/ATF-1 phosphorylation
Cldn-1 expression ([4]; AR-siRNA): stimulated the expression of Cldn-1
Cldn-1 expression ([4]; ZIP9-siRNA): failed to do so
Cldn-1 expression ([4]; nc-siRNA): stimulated the expression of Cldn-1
TJ formation (TER) ([5]; AR-siRNA): had the same effect
TJ formation (TER) ([5]; ZIP9-siRNA): failed to stimulate TJ formation
TJ formation (TER) ([5]; nc-siRNA): tighter TJ than the control already after 1 day of treatment, as demonstrated by increased TER
Concentration for maximum Erk1/2 phosphorylation ([6]; testosterone): 0.01 µM
Prevention of T-BSA-FITC binding [7]: Its binding can be prevented

IAPG
Total expression of Erk1/2 or beta-actin [1]: did not affect total expression of Erk1/2 or beta-actin
Concentration needed for maximum stimulation of Erk1/2 phosphorylation ([1]; IAPG): 10 µM
Stimulatory effect on Erk1/2 phosphorylation, nc-siRNA versus AR-siRNA [2]: not significantly different from each other
Erk1/2 phosphorylation (green fluorescence) ([2]; AR-siRNA, ** p ≤ 0.01): responded with augmented phosphorylation of Erk1/2
Erk1/2 phosphorylation (green fluorescence) ([2]; ZIP9-siRNA, ns): entirely prevented stimulation of Erk1/2 phosphorylation
Erk1/2 phosphorylation (green fluorescence) ([2]; nc-siRNA, ** p ≤ 0.01): low (Figure 6A) relative to the signal obtained in cells exposed to testosterone (Figure 6B) or IAPG
CREB/ATF-1 phosphorylation ([3]; AR-siRNA): to the same extent as cells treated with nc-siRNA
CREB/ATF-1 phosphorylation ([3]; ZIP9-siRNA): failed to stimulate phosphorylation of CREB/ATF-1
CREB/ATF-1 phosphorylation ([3]; nc-siRNA): stimulated CREB/ATF-1 phosphorylation
Cldn-1 expression ([4]; AR-siRNA): stimulated the expression of Cldn-1
Cldn-1 expression ([4]; ZIP9-siRNA): failed to do so
Cldn-1 expression ([4]; nc-siRNA): stimulated the expression of Cldn-1
TJ formation (TER) ([5]; AR-siRNA): had the same effect
TJ formation (TER) ([5]; ZIP9-siRNA): failed to stimulate TJ formation
TJ formation (TER) ([5]; nc-siRNA): tighter TJ than the control already after 1 day of treatment, as demonstrated by increased TER
Concentration for maximum Erk1/2 phosphorylation ([6]; IAPG): 10 µM
Prevention of T-BSA-FITC binding [7]: Its binding can be prevented
